Test: safe delivery concentration of PGG as a function of its purity
Settings: PGG of the stated purity; toxic impurities gallic acid and methyl gallate
Excerpt: The concentrations of PGG which may be safely delivered to a patient may be generally proportional to the purity of the PGG. For example, gallic acid, depicted in FIG. 1B, and methyl gallate, depicted in FIG. 1C, are common cytotoxic impurities which may be removed from a source batch of PGG during the purification process. Eliminating the presence of or reducing the concentration of toxic impurities from the delivered PGG may allow higher concentrations of the PGG to be delivered due to the mitigation of the toxic side effects of impurities commonly found in isolated PGG. For instance, studies have shown that substantially 100% pure PGG may be safely delivered at concentrations up to approximately 0.330% (w/v), 95% pure PGG may be safely delivered at concentrations up to approximately 0.125% (w/v), and 85% pure PGG may be safely delivered at concentrations up to approximately 0.06% (w/v). Delivery of PGG in higher concentrations may enhance the amount of uptake of PGG by the target tissue which may increase the efficacy of the PGG treatment. Delivery of PGG in higher concentrations may increase the rate of uptake of PGG by the tissue allowing the same amount of uptake in shorter delivery times. […]

Row | Substance | concentration up to which PGG may be safely delivered
1 | 1,2,3,4,6-pentagalloyl glucose [substantially 100% pure PGG] | ≤ 0.330 % (w/v)
2 | 1,2,3,4,6-pentagalloyl glucose [85% pure PGG] | ≤ 0.06 % (w/v)
